For one assay, the system named is MNS-induced AF. The conditions noted are these: cited from earlier work; for effect on MNS-induced AF: previous work.
For assay [1], the system named is intrinsic cardiac (IC) neurons. In words: evoked action potentials of intrinsic cardiac neurons after local drug application (intracellular recording). The class given is cell-based, guinea pig. The settings on record: 10^-3 M, 1- to 2-s local pressure ejection; across all groups (control, PO, PO+RCV, PO+LCV). The procedure: Intracellular voltage recordings from IC neurons derived from explanted IC ganglia placed in 35-37° C. Krebs-Ringer solution were obtained by impaling cells with 3 M KCl-filled glass micropipettes (40- to 80-Me resistance) using an Axoclamp 2B amplifier (Molecular Devices). Data were collected, digitized, and analyzed using pClamp 10.2 (Molecular Devices). Individual neurons were used for data analysis if their resting membrane potential (RMP) was −40 mV or less and produced action potentials (APs) with an overshoot of >20 mV. Input resistance was determined using 0.1- and 0.2-nA pulses (500 ms). Neuronal soma excitability was monitored by observing the response to a series of long depolarizing current pulses (0.1-0.6 nA, 500 ms). The number of evoked APs vs. stimulus intensity was determined to assess relative changes in excitability. Afterhyperpolarization (AHP) durations were analyzed to determine the time to reach 50% of the amplitude from the peak of the AHP to the RMP.
For each cell, after characterization of the basic electrophysiological properties, induced changes in the number of evoked APs by depolarizing pulses were again assessed immediately following a 1- to 2-s application of NE (10^-3 M; Sigma) or bethanechol (a muscarinic agonist, 10^-3 M; Sigma). […]

As for `C[N+](C)(C)CCCCCC[N+](C)(C)C` [Hexamethonium], in the assay with MNS-induced AF (posttreatment, from 90% baseline), the “number of AF responses to MNS stimulation” value was 10%.
As for `CN1[C@@H]2CC[C@H]1C[C@@H](OC(=O)C(CO)c1ccccc1)C2` (stereo partly shown) [atropine], in the assay on MNS-induced AF, the “effect on MNS-induced AF” value is “eliminated”.
As for `CC(C)(C)NC[C@H](O)COc1nsnc1N1CCOCC1` [timolol], in the assay with MNS-induced AF, the “effect on MNS-induced AF” value is “modified”.
For the compound `NC[C@H](O)c1ccc(O)c(O)c1` [NE, norepinephrine], in assay [1], the “changes in IC neuronal sensitivity elicited by local application” value is on record as “less than that elicited by bethanecol”.
